Earlier results, collected in patent US20120142750A1, “INDOLEAMINE 2,3-DIOXYGENASE PATHWAYS IN THE GENERATION OF REGULATORY T CELLS” (Regents of the University of Minnesota, priority 2005, published 2012).
pEC50: −log10 of the molar value.

Biological target: IDO (Homo sapiens, UniProt P14902)
Conditions: approximate literature value; cited from earlier work

IDO, sequence (P14902 whole entry): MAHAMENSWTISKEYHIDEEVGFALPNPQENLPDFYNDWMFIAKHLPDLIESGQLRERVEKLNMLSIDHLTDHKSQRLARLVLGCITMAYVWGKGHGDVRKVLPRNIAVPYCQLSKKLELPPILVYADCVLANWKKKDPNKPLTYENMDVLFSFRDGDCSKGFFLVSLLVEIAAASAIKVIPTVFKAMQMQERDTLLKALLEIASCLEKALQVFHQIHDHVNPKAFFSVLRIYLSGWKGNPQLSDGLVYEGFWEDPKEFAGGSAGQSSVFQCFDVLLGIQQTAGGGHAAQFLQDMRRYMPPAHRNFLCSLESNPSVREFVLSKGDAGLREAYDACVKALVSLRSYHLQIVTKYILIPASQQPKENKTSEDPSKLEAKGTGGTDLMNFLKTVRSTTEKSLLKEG

In the case of `O=C1C2=C(Nc3cc([N+](=O)[O-])ccc3N2)OC1c1ccc(C2OC3=C(Nc4ccc([N+](=O)[O-])cc4N3)C2=O)cc1` (stereo not shown) [Inhibitor V], the pEC50 is listed as about 6.00.
